According to patent US11274332B2, “Methods of administering 3,4-diaminopyridine” (SERB SA, priority 2011, dated 2022):

What was measured:
[1] = target: T1, cloned human Kv1.1 potassium channel (Homo sapiens, UniProt Q09470); test: PatchXpress inhibition of cloned human Kv1.1 in HEK293 cells (Example 6); assay type: cell-based; details: hKv1.1, up to 3000 μM
T1 construct: expressed in transfected cells
Description: (§1) The objective of this study was to examine the in vitro effects and determine the […] of 3,4-DAP phosphate and the metabolite N-(4-aminopyridin-3-yl) acetamide HCl on the following ion channels: cloned human Kv1.1 potassium channel (encoded by the human KCNA1 gene, expressed in HEK293 cells), cloned human Kv1.2 potassium channel (encoded by the human KCNA2 gene, expressed in HEK293 cells), cloned human Kv1.3 potassium channel (encoded by the human KCNA3 gene, expressed in CHO cells), cloned human Kv1.4 potassium channel (encoded by the human KCNA4 gene, expressed in HEK293 cells), cloned human Kv1.5 potassium channel (encoded by the human KCNA5 gene and expressed in CHO cells), responsible for IKur, ultra-rapid delayed rectifier potassium current.
(§2) Chemicals used in solution preparation were purchased from Sigma-Aldrich (St. Louis, Mo.), unless otherwise noted, and were of ACS reagent grade purity or higher. Stock solutions of each test article (100 mM, 30 mM and 1.00 mM 3,4-DAP phosphate and 100 mM N-(4-aminopyridin-3-yl)acetamide) were prepared in sterile water and stored refrigerated. […]
(§3) In preparation for a recording session, intracellular solution was loaded into the intracellular compartments of the Sealchip16. […] After establishment of a whole-cell configuration, membrane currents were recorded using dual-channel patch clamp amplifiers in the PatchXpress®. […]

[2] = target: T2, cloned human Kv1.2 potassium channel (Homo sapiens, UniProt P16389); test: PatchXpress inhibition of cloned human Kv1.2 in HEK293 cells (Example 6); assay type: cell-based; details: hKv1.2, up to 3000 μM
T2 construct: expressed in transfected cells
T2 sequence (P16389 whole entry): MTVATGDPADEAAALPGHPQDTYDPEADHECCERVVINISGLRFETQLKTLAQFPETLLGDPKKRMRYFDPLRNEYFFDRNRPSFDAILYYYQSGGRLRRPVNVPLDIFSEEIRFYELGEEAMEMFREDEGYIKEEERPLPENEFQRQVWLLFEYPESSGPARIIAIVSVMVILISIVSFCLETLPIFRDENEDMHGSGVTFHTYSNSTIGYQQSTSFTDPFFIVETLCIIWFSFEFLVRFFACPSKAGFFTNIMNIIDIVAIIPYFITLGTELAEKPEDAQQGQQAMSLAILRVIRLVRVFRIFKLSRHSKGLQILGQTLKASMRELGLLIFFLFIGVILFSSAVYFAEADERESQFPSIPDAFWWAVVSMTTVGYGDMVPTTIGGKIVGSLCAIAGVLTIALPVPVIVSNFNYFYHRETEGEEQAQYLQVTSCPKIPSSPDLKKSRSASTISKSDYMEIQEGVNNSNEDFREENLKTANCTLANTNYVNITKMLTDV
Description: as §1, §2, §3

T1 sequence (Q09470 whole entry): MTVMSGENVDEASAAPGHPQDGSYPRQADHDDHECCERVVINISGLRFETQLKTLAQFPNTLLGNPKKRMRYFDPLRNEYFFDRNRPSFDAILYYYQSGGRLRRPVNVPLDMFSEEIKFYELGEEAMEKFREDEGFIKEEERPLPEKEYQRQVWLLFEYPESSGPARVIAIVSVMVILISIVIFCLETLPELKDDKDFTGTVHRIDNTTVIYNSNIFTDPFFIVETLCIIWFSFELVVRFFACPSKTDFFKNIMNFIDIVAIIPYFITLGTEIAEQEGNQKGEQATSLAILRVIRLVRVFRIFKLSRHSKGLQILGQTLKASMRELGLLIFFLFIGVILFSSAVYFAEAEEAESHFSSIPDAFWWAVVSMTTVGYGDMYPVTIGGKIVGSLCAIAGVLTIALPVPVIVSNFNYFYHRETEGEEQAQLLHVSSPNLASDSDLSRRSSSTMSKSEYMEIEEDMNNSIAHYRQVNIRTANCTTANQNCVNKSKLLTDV

In the case of `CC(=O)Nc1cnccc1N` [3-N-acetyl amifampridine, N-(4-aminopyridin-3-yl)acetamide], the “activity on K+ channel” value [1] is reported as “inactive”, the “activity on K+ channel” value ([1]; listed as N-acetyl metabolite) is reported as “not active” and the “activity on K+ channel” value [2] is reported as “inactive”. The “activity on K+ channel” value ([2]; listed as N-acetyl metabolite) was “not active”.
